Source: ChEMBL document CHEMBL3885881, “DrugMatrix”

Species: Rattus norvegicus
Test: DrugMatrix - Regimen: Daily Repeat
Assay type: toxicity, organism-based, Sprague-Dawley
Design: regimen Daily Repeat, gender Male, age 6-8 weeks
Settings: in vivo, po, route oral GAVAGE, vehicle 100 % WATER; for ABSOLUTE BASOPHIL / ABSOLUTE EOSINOPHIL / ABSOLUTE LYMPHOCYTE / ABSOLUTE MONOCYTE / ABSOLUTE SEGMENTED NEUTROPHIL / BASOPHIL / EOSINOPHIL / ERYTHROCYTE COUNT / HEMATOCRIT / HEMOGLOBIN / LEUKOCYTE COUNT / LYMPHOCYTE / MEAN CORPUSCULAR HEMOGLOBIN / MEAN CORPUSCULAR HEMOGLOBIN CONCENTRATION / MEAN CORPUSCULAR VOLUME / MONOCYTE / NEUTROPHIL / NUCLEATED RED BLOOD CELLS / PLATELET COUNT: tissue Blood; for ALANINE AMINOTRANSFERASE / ALBUMIN / ALKALINE PHOSPHATASE / ASPARTATE AMINOTRANSFERASE / BLOOD UREA NITROGEN / CARBON DIOXIDE / CHLORIDE / CHOLESTEROL / CREATINE PHOSPHOKINASE / CREATININE / GLUCOSE / LACTATE DEHYDROGENASE / LIPASE / PHOSPHORUS / POTASSIUM / SODIUM / TOTAL BILIRUBIN / TOTAL PROTEIN / URIC ACID: tissue Plasma
[1] = 0 mg/kg, 72 h, dose level Control, time 3 day
[2] = 0 mg/kg, 120 h, dose level Control, time 5 day
[3] = 30 mg/kg, 72 h, dose level Low, time 3 day
[4] = 30 mg/kg, 120 h, dose level Low, time 5 day

`COc1cccc(C2(O)CCCCC2CN(C)C)c1` (configuration not stated) [TRAMADOL] was tested, and the “ABSOLUTE BASOPHIL” value [1] was 0 CELLS/uL, the “ABSOLUTE EOSINOPHIL” value [1] was 32.5 CELLS/uL and the “ABSOLUTE LYMPHOCYTE” value [1] was 9305.83 CELLS/uL. The “ABSOLUTE MONOCYTE” value [1] was 43.83 CELLS/uL, the “ABSOLUTE SEGMENTED NEUTROPHIL” value [1] was 817.83 CELLS/uL and the BASOPHIL [1] was 0%. The EOSINOPHIL [1] was 0.33%, the “ERYTHROCYTE COUNT” value [1] was 5.38 x10E6/uL and the HEMATOCRIT [1] was 33.63%. For the same compound, the HEMOGLOBIN [1] was 13.17 G/DL, the “LEUKOCYTE COUNT” value [1] was 10.2 x10E3/uL and the LYMPHOCYTE [1] was 91.17%. The “MEAN CORPUSCULAR HEMOGLOBIN” value [1] was 24.5 pg, the “MEAN CORPUSCULAR HEMOGLOBIN CONCENTRATION” value [1] was 39.13 G/DL and the “MEAN CORPUSCULAR VOLUME” value [1] was 62.53 fL. For the same compound, the MONOCYTE [1] was 0.5%, the NEUTROPHIL [1] was 8% and the “NUCLEATED RED BLOOD CELLS” value [1] was 0.17 /100WBC. For the same compound, the “PLATELET COUNT” value [1] was 858 x10E3/uL, the “ALANINE AMINOTRANSFERASE” value [1] was 55.67 u/L and the ALBUMIN [1] was 4.07 G/DL. For the same compound, the “ALKALINE PHOSPHATASE” value [1] was 337 u/L, the “ASPARTATE AMINOTRANSFERASE” value [1] was 84 u/L and the “BLOOD UREA NITROGEN” value [1] was 13.17 mg/dL. The “CARBON DIOXIDE” value [1] was 34.17 mmol/L, the CHLORIDE [1] was 99.33 MEQ/L and the CHOLESTEROL [1] was 78.83 mg/dL. The “CREATINE PHOSPHOKINASE” value [1] was 576.83 u/L, the CREATININE [1] was 0.17 mg/dL and the GLUCOSE [1] was 152.67 mg/dL. For the same compound, the “LACTATE DEHYDROGENASE” value [1] was 147.83 u/L, the LIPASE [1] was 9.5 u/L and the PHOSPHORUS [1] was 10.78 mg/dL. The POTASSIUM [1] was 6.34 MEQ/L, the SODIUM [1] was 144.12 MEQ/L and the “TOTAL BILIRUBIN” value [1] was 0.18 mg/dL. For the same compound, the “TOTAL PROTEIN” value [1] was 6.08 G/DL, the “URIC ACID” value [1] was 0.65 mg/dL and the “ABSOLUTE BASOPHIL” value [2] was 0 CELLS/uL. For the same compound, the “ABSOLUTE EOSINOPHIL” value [2] was 31.17 CELLS/uL, the “ABSOLUTE LYMPHOCYTE” value [2] was 7918.33 CELLS/uL and the “ABSOLUTE MONOCYTE” value [2] was 58.33 CELLS/uL. For the same compound, the “ABSOLUTE SEGMENTED NEUTROPHIL” value [2] was 725.5 CELLS/uL, the BASOPHIL [2] was 0% and the EOSINOPHIL [2] was 0.33%. For the same compound, the “ERYTHROCYTE COUNT” value [2] was 5.32 x10E6/uL, the HEMATOCRIT [2] was 33.53% and the HEMOGLOBIN [2] was 13.17 G/DL. The “LEUKOCYTE COUNT” value [2] was 8.73 x10E3/uL, the LYMPHOCYTE [2] was 90.33% and the “MEAN CORPUSCULAR HEMOGLOBIN” value [2] was 24.82 pg. The “MEAN CORPUSCULAR HEMOGLOBIN CONCENTRATION” value [2] was 39.33 G/DL, the “MEAN CORPUSCULAR VOLUME” value [2] was 63.12 fL and the MONOCYTE [2] was 0.67%. For the same compound, the NEUTROPHIL [2] was 8.67%, the “NUCLEATED RED BLOOD CELLS” value [2] was 0 /100WBC and the “PLATELET COUNT” value [2] was 1144.83 x10E3/uL. The “ALANINE AMINOTRANSFERASE” value [2] was 60.5 u/L, the ALBUMIN [2] was 3.97 G/DL and the “ALKALINE PHOSPHATASE” value [2] was 343.17 u/L. The “ASPARTATE AMINOTRANSFERASE” value [2] was 80.83 u/L, the “BLOOD UREA NITROGEN” value [2] was 15 mg/dL and the “CARBON DIOXIDE” value [2] was 31 mmol/L. For the same compound, the CHLORIDE [2] was 99.75 MEQ/L, the CHOLESTEROL [2] was 71.5 mg/dL and the “CREATINE PHOSPHOKINASE” value [2] was 237.17 u/L. For the same compound, the CREATININE [2] was 0.17 mg/dL, the GLUCOSE [2] was 137 mg/dL and the “LACTATE DEHYDROGENASE” value [2] was 146.17 u/L. It also gave an LIPASE [2] of 11.5 u/L, a PHOSPHORUS [2] of 10.13 mg/dL and a POTASSIUM [2] of 6 MEQ/L. The SODIUM [2] was 145 MEQ/L, the “TOTAL BILIRUBIN” value [2] was 0.13 mg/dL and the “TOTAL PROTEIN” value [2] was 5.82 G/DL. For the same compound, the “URIC ACID” value [2] was 0.62 mg/dL, the “ABSOLUTE BASOPHIL” value [3] was 0 CELLS/uL and the “ABSOLUTE EOSINOPHIL” value [3] was 0 CELLS/uL. For the same compound, the “ABSOLUTE LYMPHOCYTE” value [3] was 6045 CELLS/uL, the “ABSOLUTE MONOCYTE” value [3] was 124.33 CELLS/uL and the “ABSOLUTE SEGMENTED NEUTROPHIL” value [3] was 697.33 CELLS/uL. The BASOPHIL [3] was 0%, the EOSINOPHIL [3] was 0% and the “ERYTHROCYTE COUNT” value [3] was 5.35 x10E6/uL. The HEMATOCRIT [3] was 33.3%, the HEMOGLOBIN [3] was 13.03 G/DL and the “LEUKOCYTE COUNT” value [3] was 6.87 x10E3/uL. For the same compound, the LYMPHOCYTE [3] was 88.33%, the “MEAN CORPUSCULAR HEMOGLOBIN” value [3] was 24.4 pg and the “MEAN CORPUSCULAR HEMOGLOBIN CONCENTRATION” value [3] was 39.13 G/DL. For the same compound, the “MEAN CORPUSCULAR VOLUME” value [3] was 62.23 fL, the MONOCYTE [3] was 1.67% and the NEUTROPHIL [3] was 10%. For the same compound, the “NUCLEATED RED BLOOD CELLS” value [3] was 0.67 /100WBC, the “PLATELET COUNT” value [3] was 1017 x10E3/uL and the “ALANINE AMINOTRANSFERASE” value [3] was 47.33 u/L. The ALBUMIN [3] was 4.13 G/DL, the “ALKALINE PHOSPHATASE” value [3] was 434.67 u/L and the “ASPARTATE AMINOTRANSFERASE” value [3] was 82.67 u/L. The “BLOOD UREA NITROGEN” value [3] was 12.33 mg/dL, the “CARBON DIOXIDE” value [3] was 34.67 mmol/L and the CHLORIDE [3] was 99.67 MEQ/L. For the same compound, the CHOLESTEROL [3] was 72.33 mg/dL, the “CREATINE PHOSPHOKINASE” value [3] was 347.67 u/L and the CREATININE [3] was 0.16 mg/dL. The GLUCOSE [3] was 136.33 mg/dL, the “LACTATE DEHYDROGENASE” value [3] was 123.33 u/L and the LIPASE [3] was 9.33 u/L. It also gave a PHOSPHORUS [3] of 11 mg/dL, a POTASSIUM [3] of 6.23 MEQ/L and an SODIUM [3] of 144.43 MEQ/L. For the same compound, the “TOTAL BILIRUBIN” value [3] was 0.2 mg/dL, the “TOTAL PROTEIN” value [3] was 5.93 G/DL and the “URIC ACID” value [3] was 0.8 mg/dL. For the same compound, the “ABSOLUTE BASOPHIL” value [4] was 0 CELLS/uL, the “ABSOLUTE EOSINOPHIL” value [4] was 97.33 CELLS/uL and the “ABSOLUTE LYMPHOCYTE” value [4] was 8968.67 CELLS/uL. For the same compound, the “ABSOLUTE MONOCYTE” value [4] was 0 CELLS/uL, the “ABSOLUTE SEGMENTED NEUTROPHIL” value [4] was 967.33 CELLS/uL and the BASOPHIL [4] was 0%. For the same compound, the EOSINOPHIL [4] was 1%, the “ERYTHROCYTE COUNT” value [4] was 5.45 x10E6/uL and the HEMATOCRIT [4] was 35.3%. For the same compound, the HEMOGLOBIN [4] was 13.57 G/DL, the “LEUKOCYTE COUNT” value [4] was 10.03 x10E3/uL and the LYMPHOCYTE [4] was 88.67%. For the same compound, the “MEAN CORPUSCULAR HEMOGLOBIN” value [4] was 24.87 pg, the “MEAN CORPUSCULAR HEMOGLOBIN CONCENTRATION” value [4] was 38.47 G/DL and the “MEAN CORPUSCULAR VOLUME” value [4] was 64.67 fL. The MONOCYTE [4] was 0%, the NEUTROPHIL [4] was 10.33% and the “NUCLEATED RED BLOOD CELLS” value [4] was 0 /100WBC. For the same compound, the “PLATELET COUNT” value [4] was 1078.67 x10E3/uL, the “ALANINE AMINOTRANSFERASE” value [4] was 45 u/L and the ALBUMIN [4] was 4.03 G/DL. The “ALKALINE PHOSPHATASE” value [4] was 395 u/L, the “ASPARTATE AMINOTRANSFERASE” value [4] was 72 u/L and the “BLOOD UREA NITROGEN” value [4] was 13 mg/dL. For the same compound, the “CARBON DIOXIDE” value [4] was 30.67 mmol/L, the CHLORIDE [4] was 99 MEQ/L and the CHOLESTEROL [4] was 69.33 mg/dL. For the same compound, the “CREATINE PHOSPHOKINASE” value [4] was 188 u/L, the CREATININE [4] was 0.17 mg/dL and the GLUCOSE [4] was 143.67 mg/dL. For the same compound, the “LACTATE DEHYDROGENASE” value [4] was 113.33 u/L, the LIPASE [4] was 9.33 u/L and the PHOSPHORUS [4] was 11.2 mg/dL. For the same compound, the POTASSIUM [4] was 6.21 MEQ/L, the SODIUM [4] was 144.27 MEQ/L and the “TOTAL BILIRUBIN” value [4] was 0.2 mg/dL. For the same compound, the “TOTAL PROTEIN” value [4] was 5.8 G/DL and the “URIC ACID” value [4] was 1.2 mg/dL.
